Experimental data published in patent US12465607B2, “ALK inhibitors for treatment of ALK-negative cancer and plasma cell-mediated diseases” (UNIVERSITETET I OSLO, priority 2019, dated 2025).
Where two headings read alike, the source gives them in different places.

How the values were obtained:
L363wt plasma cell lines = assay: Intrafemoral Luciferase+ L363wt plasma cell line xenograft in NSG mice, IVIS imaging; format: in vivo; conditions: 50 mg/kg, orally, daily, 7 days
Experimental: Luciferase^+ L363wt plasma cell lines were injected intrafemorally into immunocompromised NSG mice. After 10 days, mice were treated with crizotinib (50 mg/kg, orally, daily) every day for 7 days.
Mice were imaged on an IVIS optical imager on days 10, 14 and 17. Ventral aspects of 3 (of 4) mice are shown. Mice received vehicle (top) or crizotinib (bottom).

[1] = system: human L363-BTZ (bortezomib-resistant) myeloma cells; assay: Intrafemoral L363-BTZ luciferase xenograft in NSG mice; format: in vivo; conditions: 7 days treatment from day 10; crizotinib 50 mg/kg orally daily; bortezomib 1 mg/kg i.v. twice
Experimental: In this figure, immunocompromised NSG mice were intrafemorally injected with human L363-BTZ (bortezomib-resistant) myeloma cells. The cells were equipped with luciferase for in vivo monitoring of disease progression. After 10 days, mice were treated with bortezomib i.v. twice over a 7 day period and with crizotinib orally every day over the 7 day period. The images on the left show examples of tumour load in the different groups at days 4 and 7 of treatment (days 14 and 17 post tumour inoculation), and the graph on the right depicts the average luciferase signal for each mouse in each cohort (n=4) normalised to day 0 of the treatment (day 10 post tumour inoculation). Statistical significance between the groups was assessed with two-way ANOVA and between the time-points using one-way ANOVA with Tukey post-test.
NSG (NOD-scid IL2Rgamma^null) mice were obtained from The Jackson Laboratory (No. 005557, CA, USA) and kept in isolated ventilated cages with food ad libitum. Age matched (6-8 weeks old) mice were injected with 0.5×10^5 L363-BTZ_Luc+_TdTomato+ multiple myeloma cells (equipped with luciferase vector for monitoring, obtained from Addgene: #72486) into the right femur. Tumour growth was monitored twice over the week following luciferin injection (150 mg/kg, obtained from BioVision, CA, USA). […]

plasma cells = assay: Viability of in vitro-generated IRF4/BLIMP1 double positive end stage plasma cells; format: cell-based; conditions: Homo sapiens, B-cell, 120 h; B-cells stimulated 5 days, inhibitor day 5-7
Description: Negatively selected normal B-cells from blood bank donors were stimulated with sCD40L, IL-21, IL-4 for 5 days. This protocol allows generation of 10-20% end differentiated plasma cells that express IRF4 and BLIMP1. From day 5-7, cells were exposed to titred crizotinib in A, or ceritinib in B.
In A and B, IRF4 vs BLIMP1 in gated CD19^+ B cells is shown. IRF4 and BLIMP1 double positive cells represent end stage plasma cells. Such plasma cells are gated (blue elliptic region) and percent plasma cells are shown. The conditions without inhibitor (0) and with linear Alk-inhibitor (crizotinib, A; ceritinib, B) are shown for concentrations 0.01 μM, 0.1 μM, 1 μM, 10 μM and 100 μM.

[2] = system: B-cell blasts (plasma blasts/cells); assay: Viability of in vitro-generated B-cell blasts (plasma blasts/cells), CellTiterGlo 72 h; format: cell-based; conditions: Homo sapiens, day 3 B-cell blasts from 5 donors
Experimental: CD19^+ B-cells from 5 blood bank donors were stimulated by adherent murine L cells expressing CD40L, BAFF and April for 3 days to make B-cell blasts (plasma blasts/cells). plasma blasts/cells were tested for sensitivity to crizotinib for 72 h (CellTiterGlo).
CD19^+ B-cells from 5 blood bank donors were stimulated by adherent murine L cells expressing CD40L, BAFF and April for 3 days to make B-cell blasts (plasma blasts/cells). Washed plasma blasts/cells were detached and plated into 384 well format (10,000 cells/well) and tested against crizotinib at 6 concentrations in 10-fold dilutions covering a 10^−3-10 μM concentration range. Cell viability was determined after 72 h using the CellTiterGlo. Relative percentage cell viability was calculated by normalising luminescence units for each well to negative controls (DMSO 0.1%) and positive control wells (100 μM BzCl) and curve-fitting conducted to obtain the IC50.

CLL cells = assay: Viability of activated CLL cells from patients, CellTiter-Glo 72 h (IC50, DSS); format: cell-based, human; conditions: for IC50: Homo sapiens, CLL cell
Experimental: CLL cells from patients were stimulated by adherent murine L cells expressing CD40L, BAFF and April for 24 h. The L cells were then removed by immuno-magnetic separation. Washed CLL cells were plated into 384-well plate format (10,000 cells/well) and tested against crizotinib at 5 concentrations in 10-fold dilutions (plates dispensed by an Echo acoustic dispenser, LabCyte Inc., San Jose, CA, USA). The plate was incubated in a humidified environment at 37° C. and 5% CO2. Cell viability was determined after 72 h using the CellTiter-Glo (Promega, Madison, WI, USA) ATP assay according to the manufacturer's instructions and using an Envision 2102 Multilabel reader (PerkinElmer, Shelton, CT, USA). Relative percentage cell viability was calculated by normalising luminescence units for each well to negative (DMSO 0.1%) and positive (100 μM BzCl) control wells. Curve fitting was conducted to obtain IC50 values.
Quantitative scoring of differential drug sensitivity for individual drugs was calculated as drug sensitivity scores (DSS values, Yadav et al., Scientific Reports 4: 5193, 2014). DSS values were calculated for integrated multiple dose-response relationships in high-throughput compound testing as shown.

[3] = CLL cells from 21 patients, 72 h

SMILES: C[C@@H](Oc1cc(-c2cnn(C3CCNCC3)c2)cnc1N)c1c(Cl)ccc(F)c1Cl [crizotinib, 3-[(1R)-1-(2,6-dichloro-3-fluorophenyl)ethoxy]-5-(1-piperidin-4-ylpyrazol-4-yl)pyridin-2-amine]
- mice with dramatically reduced signals from plasma cells (L363wt plasma cell lines): 3 of 4
- plasma cell density (luciferase dependent signals) (L363wt plasma cell lines): reduced plasma cell density
- tumour burden (luciferase signal) [1]: reduction in tumour burden
- IC50 (plasma cells): 0.8 µM
- IC50 [2]: 1 to 1.5 µM
- share of patients with CLL cells highly sensitive by drug sensitivity score (DSS) (CLL cells; 21 patients): a third
- patients with susceptible CLL cells, cut-off DSS=10 (CLL cells; CLL cells from 12 new patients): 10/12
- patient samples with CLL cells sensitive (CLL cells; [3]): 17 of 21
- patient samples with CLL cells sensitive, percent (CLL cells; [3]): 81%
- IC50 (CLL cells; 3 patient samples, read-out: IC50, highly sensitive CLL samples): < 0.2 µM
- IC50 (CLL cells; 3 patient samples, read-out: IC50, supersensitive CLL samples): < 0.01 µM
- IC50 (CLL cells; 11 patient samples, read-out: IC50, normally sensitive CLL samples): < 2 µM
- patient samples highly sensitive (CLL cells; IgVH mutated CLL): Three out of 15
- patient samples with low sensitivity (CLL cells; IgVH mutated CLL): Four of the 15
- patient samples highly sensitive (CLL cells; IgVH unmutated CLL): Four of six
- patient samples with low sensitivity (CLL cells; IgVH unmutated CLL): None
